Assay results taken from ChEMBL document CHEMBL1149998, “Tannins as selective inhibitors of protein kinase C” (Bioorg Med Chem Lett, 1992).

Assays:
[1] = molecular target: Protein kinase C, PKC; classical/novel (Homo sapiens) (UniProt O94806+P17252+P05129+Q05655+P05771+Q02156+P24723+Q15139+Q04759); test: Displacement of phorbol [3H]PDBu from protein kinase C; A - Did displace phorbol (PDBu) at 50 uM or less; assay type: protein assay
[2] = molecular target: Protein kinase C (PKC); test: Inhibitory activity against protein kinase C (PKC); assay type: protein assay, Homo sapiens
[3] = Inhibitory activity against c-AMP kinase; Did not inhibit c-AMP kinase

Question: For `O=C(OC[C@H]1O[C@@H](O)[C@H](OC(=O)c2cc(O)c(O)c(O)c2)[C@@H](OC(=O)c2cc(O)c(O)c(O)c2)[C@@H]1OC(=O)c1cc(O)c(O)c(O)c1)c1cc(O)c(O)c(O)c1`, which Phorbol displacement [1] is on record?
Answer: The Phorbol displacement was less than 50 µM.

Question: And the IC50 [2]?
Answer: The IC50 was 82 µM.

Question: And the IC50 [3]?
Answer: The IC50 was “Not Active”.

Question: With `O=C(O[C@@H]1C[C@](OC(=O)c2cc(O)c(O)c(O)c2)(C(=O)O)C[C@@H](OC(=O)c2cc(O)c(O)c(O)c2)[C@H]1OC(=O)c1cc(O)c(O)c(O)c1)c1cc(O)c(O)c(O)c1` as the compound, how does the Phorbol displacement [1] read?
Answer: Its Phorbol displacement is less than 50 µM.

Question: And the IC50 [2]?
Answer: The IC50 was 64 µM.

Question: And the IC50 [3]?
Answer: Its IC50 is “Not Active”.

Question: With `O=C(O)C[C@@H]1C(=O)O[C@H]2[C@@H]3OC(=O)c4cc(O)c(O)c(O)c4-c4c(cc(O)c(O)c4O)C(=O)OC[C@H]2O[C@@H](OC(=O)c2cc(O)c(O)c(O)c2)[C@@H]3OC(=O)c2cc(O)c(O)c3c2[C@H]1[C@H](O)C(=O)O3` [CHEBULAGIC ACID] as the compound, how does the IC50 [2] read?
Answer: Its IC50 is 30 µM.

Question: With `O=C(OC[C@H]1O[C@H](OC(=O)c2cc(O)c(O)c(O)c2)[C@H](O)[C@@H](O)[C@@H]1OC(=O)c1cc(O)c(O)c(O)c1)c1cc(O)c(O)c(O)c1` as the compound, how does the IC50 [2] read?
Answer: The IC50 was greater than 100 µM.

Question: Which results are given for `O=C1OCC2OC(=O)c3cc(O)c(O)c(O)c3-c3c(O)c(O)c(O)c4c3C(=O)OC(C2OC(=O)c2cc(O)c(O)c(O)c2-c2c1cc(O)c(O)c2O)C1OC(=O)c2c-4c(O)c(O)c(O)c2[C@H]1O` (stereo partly drawn)?
Answer: Phorbol displacement [1]: < 50 µM; IC50 [2]: 8 µM; IC50 [3]: Not Active

Question: Which results are given for `O=C1O[C@H]2[C@@H]3OC(=O)c4cc(O)c(O)c(O)c4-c4c(cc(O)c(O)c4O)C(=O)OC[C@H]2O[C@H](OC(=O)c2cc(O)c(O)c(O)c2)[C@@H]3OC(=O)c2cc(O)c(O)c3c2C2C1=CC(=O)C(O)(O)C2(O)O3` (stereo partly drawn)?
Answer: IC50 [2]: 11 µM; IC50 [3]: Not Active

Question: For `O=C(OC[C@H]1O[C@@H](OC(=O)c2cc(O)c(O)c(O)c2)[C@H](OC(=O)c2cc(O)c(O)c(O)c2)[C@@H](OC(=O)c2cc(O)c(O)c(O)c2)[C@@H]1OC(=O)c1cc(O)c(O)c(O)c1)c1cc(O)c(O)c(O)c1` [PENTAGALLOYL GLUCOSE], which Phorbol displacement [1] is on record?
Answer: Its Phorbol displacement is less than 50 µM.

Question: And the IC50 [2]?
Answer: Its IC50 is 4 µM.

Question: For `O=C(O[C@@H]1O[C@@H]2COC(=O)c3cc(O)c(O)c(O)c3-c3c(cc(O)c(O)c3O)C(=O)O[C@H]([C@H]1O)[C@@H]2O)c1cc(O)c(O)c(O)c1` [CORILAGIN], which IC50 [2] is on record?
Answer: The IC50 was 20 µM.

Question: Which IC50 [2] does the source give for `O=C(OC[C@H]1OC(O)[C@@](O)(COC(=O)c2cc(O)c(O)c(O)c2)[C@@H]1O)c1cc(O)c(O)c(O)c1` (stereo partly drawn) [HAMAMELITANNIN] here?
Answer: The IC50 was greater than 100 µM.

Question: Which results are given for `O=C(O[C@H]1[C@H](O)C[C@](OC(=O)c2cc(O)c(O)c(O)c2)(C(=O)O)C[C@H]1O)c1cc(O)c(O)c(O)c1`?
Answer: IC50 [2]: > 100 µM; IC50 [3]: Not Active

Question: With `O=C(OC1Cc2c(O)cc(O)c([C@H]3c4c(O)cc(O)c([C@H]5c6c(O)cc(O)cc6O[C@H](c6ccc(O)c(O)c6)[C@@H]5OC(=O)c5cc(O)c(O)c(O)c5)c4O[C@H](c4ccc(O)c(O)c4)C3OC(=O)c3cc(O)c(O)c(O)c3)c2O[C@@H]1c1ccc(O)c(O)c1)c1cc(O)c(O)c(O)c1` (stereo partly drawn) as the compound, how does the Phorbol displacement [1] read?
Answer: Its Phorbol displacement is less than 50 µM.

Question: And the IC50 [2]?
Answer: The IC50 was 2 µM.

Question: What about the IC50 [3] of the same compound?
Answer: Its IC50 is “Not Active”.

Question: What does the source list for `Oc1cc(O)c2c(c1)O[C@H](c1ccc(O)c(O)c1)[C@H](O)[C@H]2c1c(O)cc(O)c2c1O[C@H](c1ccc(O)c(O)c1)[C@H](O)[C@H]2c1c(O)cc(O)c2c1O[C@H](c1ccc(O)c(O)c1)[C@H](O)C2` [PROCYANIDIN C1]?
Answer: Phorbol displacement [1]: < 50 µM; IC50 [2]: 40 µM; IC50 [3]: Not Active

Question: With `O=C(OC[C@H]1O[C@H](O)[C@@](O)(COC(=O)c2cc(O)c(O)c(O)c2)[C@@H]1OC(=O)c1cc(O)c(O)c(O)c1)c1cc(O)c(O)c(O)c1` as the compound, how does the IC50 [2] read?
Answer: The IC50 was greater than 100 µM.

Question: With `O=C(OC[C@H]1O[C@H](OC(=O)c2cc(O)c(O)c(O)c2)[C@H](OC(=O)c2cc(O)c(O)c(O)c2)[C@@H](OC(=O)c2cc(O)c(O)c(O)c2)[C@@H]1O)c1cc(O)c(O)c(O)c1` as the compound, how does the Phorbol displacement [1] read?
Answer: Its Phorbol displacement is less than 50 µM.

Question: What about the IC50 [2] of the same compound?
Answer: Its IC50 is 20 µM.

Question: And the IC50 [3]?
Answer: Its IC50 is “Not Active”.

Question: Which results are given for `O=C(O[C@@H]1O[C@@H]2COC(=O)c3cc(O)c(O)c(O)c3-c3c(cc(O)c(O)c3O)C(=O)O[C@H]([C@H]1OC(=O)c1cc(O)c(O)c(O)c1)[C@@H]2OC(=O)c1cc(O)c(O)c(O)c1)c1cc(O)c(O)c(O)c1` [PUNICAFOLIN]?
Answer: Phorbol displacement [1]: < 50 µM; IC50 [2]: 4 µM; IC50 [3]: Not Active

Question: With `O=C(OC1Cc2c(O)cc(O)cc2O[C@@H]1c1ccc(O)c(O)c1)c1cc(O)c(O)c(O)c1` (stereo partly drawn) as the compound, how does the Phorbol displacement [1] read?
Answer: The Phorbol displacement was less than 50 µM.

Question: And the IC50 [2]?
Answer: The IC50 was 48 µM.

Question: And the IC50 [3]?
Answer: Its IC50 is “Not Active”.

Question: For `O=C(O[C@H]1[C@H](O)C[C@](OC(=O)c2cc(O)c(O)c(O)c2)(C(=O)O)C[C@H]1OC(=O)c1cc(O)c(O)c(O)c1)c1cc(O)c(O)c(O)c1`, which Phorbol displacement [1] is on record?
Answer: Its Phorbol displacement is less than 50 µM.

Question: What about the IC50 [2] of the same compound?
Answer: The IC50 was greater than 100 µM.

Question: And the IC50 [3]?
Answer: The IC50 was “Not Active”.

Question: Which IC50 [2] does the source give for `O=C(O)C[C@@H]1C(=O)O[C@H]2[C@H](OC(=O)c3cc(O)c(O)c(O)c3)[C@@H](OC(=O)c3cc(O)c(O)c4c3[C@H]1[C@H](O)C(=O)O4)[C@@H](OC(=O)c1cc(O)c(O)c(O)c1)O[C@@H]2COC(=O)c1cc(O)c(O)c(O)c1` here?
Answer: Its IC50 is 30 µM.

Question: Which IC50 [2] does the source give for `O=C1O[C@H]2[C@H](O)[C@@H](OC(=O)c3cc(O)c(O)c4c3C3C1=CC(=O)C(O)(O)C3(O)O4)[C@@H](OC(=O)c1cc(O)c(O)c(O)c1)O[C@@H]2CO` (stereo partly drawn) here?
Answer: Its IC50 is 86 µM.

Question: For `O=C(O)C1=C[C@@H](O)[C@@H](O)[C@H](OC(=O)c2cc(O)c(O)c(OC(=O)c3cc(O)c(O)c(O)c3)c2)C1`, which IC50 [2] is on record?
Answer: Its IC50 is greater than 100 µM.

Question: For `O=C(O[C@H]1[C@H](O)C[C@](O)(C(=O)O)C[C@H]1O)c1cc(O)c(O)c(O)c1`, which IC50 [2] is on record?
Answer: The IC50 was greater than 100 µM.

Question: With `O=C(OC[C@H]1O[C@@H](OC(=O)c2cc(O)c(O)c(O)c2)[C@H](OC(=O)c2cc(O)c(O)c(O)c2)[C@@H](O)[C@@H]1O)c1cc(O)c(O)c(O)c1` as the compound, how does the IC50 [2] read?
Answer: The IC50 was greater than 100 µM.

Question: Which IC50 [2] does the source give for `Oc1cc(O)c2c(c1)O[C@@]1(c3ccc(O)c(O)c3)Oc3cc(O)c4c(c3C2[C@H]1O)O[C@H](c1ccc(O)c(O)c1)[C@H](O)C4` here?
Answer: The IC50 was greater than 100 µM.

Question: Which IC50 [2] does the source give for `O=C(O[C@@H]1C[C@](O)(C(=O)O)C[C@@H](OC(=O)c2cc(O)c(O)c(O)c2)[C@H]1OC(=O)c1cc(O)c(O)c(O)c1)c1cc(O)c(O)c(O)c1` here?
Answer: Its IC50 is greater than 100 µM.

Question: Which IC50 [2] does the source give for `O=C(OC[C@H]1O[C@@H](OC(=O)c2cc(O)c(O)c(O)c2)[C@H](O)[C@@H](O)[C@@H]1O)c1cc(O)c(O)c(O)c1` here?
Answer: Its IC50 is greater than 100 µM.

Question: With `Oc1cc(O)c2c(c1)O[C@H](c1ccc(O)c(O)c1)C(O)[C@H]2c1c(O)cc(O)c2c1O[C@H](c1ccc(O)c(O)c1)C(O)C2` (stereo partly drawn) as the compound, how does the IC50 [2] read?
Answer: The IC50 was greater than 100 µM.

Question: Which IC50 [2] does the source give for `O=C(O)C1=C[C@@H](OC(=O)c2cc(O)c(O)c(O)c2)[C@@H](O)[C@H](OC(=O)c2cc(O)c(O)c(O)c2)C1` here?
Answer: The IC50 was greater than 100 µM.

Question: For `CC1O[C@H](O)C2OC(=O)c3cc(O)c(O)c(O)c3-c3c(cc(O)c(O)c3O)C(=O)OC2C1O` (stereo partly drawn), which IC50 [2] is on record?
Answer: Its IC50 is greater than 100 µM.

Question: For `O=C(O)C1=C[C@@H](O)[C@@H](O)[C@H](OC(=O)c2cc(O)c(O)c(O)c2)C1`, which IC50 [2] is on record?
Answer: The IC50 was greater than 100 µM.

Question: For `Oc1cc(O)c2c(c1)O[C@H](c1ccc(O)c(O)c1)C(O)C2` (stereo partly drawn), which IC50 [2] is on record?
Answer: Its IC50 is greater than 100 µM.

Question: Which IC50 [2] does the source give for `O=C(O[C@@H]1O[C@H](CO)[C@@H](O)[C@H](O)[C@H]1O)c1cc(O)c(O)c(O)c1` here?
Answer: Its IC50 is greater than 100 µM.

Question: With `O=C1OC2COC(=O)c3cc(O)c(O)c(O)c3-c3c(O)c(O)c4oc(=O)c5c(c(O)c(O)c6oc(=O)c3c4c65)-c3c(cc(O)c(O)c3O)C(=O)OC2C2OC(=O)c3c(c(O)c(O)c(O)c3-c3c(O)c(O)c(O)c4c3C(=O)OC2[C@@H]4O)-c2c1cc(O)c(O)c2O` (stereo partly drawn) as the compound, how does the IC50 [2] read?
Answer: The IC50 was 4 µM.
